Test results: PubChem BioAssay (NCI)
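Results reflect a 48-hour exposure of cells in 96-well plates to compound at five concentrations. The concentration for 50% growth inhibition is given as GI50. Definition used: TGI = concentration required for complete inhibition of growth.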 *1 amine or outer side, *2 acyl side, *3 side chain or, on linkers, in order; H or OH if unused. Where a SMILES comes first, the peptide text is derived from it. Bridges are numbered along the chain shown (N, C = ends). [ ]: non-standard residue; d: D form. The star is where a group is joined. Phe(3-Me) = Cc1cccc(C[C@H](N)C(=O)O)c1; NH(4-Cl-2-F-phenyl) = Fc1cc(Cl)ccc1N*; Pro(4R-Me) = C[C@H]1CN[C@H](C(=O)O)C1; Propanoyl(3-NMe2) = CN(C)CCC(=O)*; Hyp = O=C(O)[C@@H]1C[C@@H](O)CN1; aThr = C[C@H](O)[C@H](N)C(=O)O; Pip = O=C(O)[C@@H]1CCCCN1; CO = O=C([*:1])[*:2]

How the values were obtained:
Experiment in all cases: inhibition of tumour cell growth, NCI panel, 48 h
[1] = test system: OVCAR-3 ovarian
[2] = test system: MALME-3M melanoma
[3] = test system: SK-OV-3 ovarian
[4] = test system: SF-268 CNS
[5] = test system: IGROV1 ovarian
[6] = test system: OVCAR-8 ovarian
[7] = test system: CAKI-1 renal
[8] = test system: HCT-15 colon
[9] = test system: UO-31 renal
[10] = test system: SN12C renal

O=C1C(N2C(=O)c3ccccc3C2=O)CN1C(COCc1ccccc1)c1ccc(OCc2ccccc2)cc1 (centres undefined)
TGI [1]: > 100 µM | TGI [2]: > 100 µM | TGI [3]: > 100 µM | TGI [4]: > 100 µM | TGI [5]: > 100 µM | TGI [6]: > 100 µM | TGI [7]: > 100 µM | TGI [8]: > 100 µM | TGI [9]: > 100 µM | TGI [10]: > 100 µM

O=[N+]([O-])c1ccc(-c2cn(-c3ccc(Cl)cc3)cn2)cc1
TGI [1]: 35.3 µM | TGI [2]: > 100 µM | TGI [3]: 24.4 µM | TGI [4]: > 100 µM | TGI [5]: > 100 µM | TGI [6]: > 100 µM | TGI [7]: > 100 µM | TGI [8]: > 100 µM | TGI [9]: > 100 µM | TGI [10]: > 100 µM

COc1ccc(Nc2ncccc2C(=O)NCc2cn(Cc3cccc(Oc4ccccc4)c3)nn2)cc1
GI50 [1]: 2.98 µM | TGI [1]: 7.59 µM | GI50 [2]: 3.8 µM | TGI [2]: > 100 µM | GI50 [3]: 3.11 µM | TGI [3]: 9.63 µM | GI50 [4]: 4.59 µM | TGI [4]: > 100 µM | GI50 [5]: 5.89 µM | TGI [5]: > 100 µM | GI50 [6]: 3.72 µM | TGI [6]: > 100 µM | GI50 [7]: 3.41 µM | TGI [7]: > 100 µM | GI50 [8]: 3.93 µM | TGI [8]: > 100 µM | GI50 [9]: 3 µM | TGI [9]: > 100 µM | GI50 [10]: 4.75 µM | TGI [10]: > 100 µM

COc1cc(NC(N)=NCCC(C)(C)c2ccc(C(F)(F)F)cc2)ncc1C#N
GI50 [1]: 1.79 µM | TGI [1]: 3.5 µM | GI50 [2]: 1.82 µM | TGI [2]: 3.47 µM | GI50 [3]: 2.13 µM | TGI [3]: 4.06 µM | GI50 [4]: 1.97 µM | TGI [4]: 4.27 µM | GI50 [5]: 1.68 µM | TGI [5]: 3.39 µM | GI50 [6]: 1.7 µM | TGI [6]: 3.18 µM | GI50 [7]: 1.42 µM | TGI [7]: 2.74 µM | GI50 [8]: 1.53 µM | TGI [8]: 2.9 µM | GI50 [9]: 1.34 µM | TGI [9]: 2.66 µM | GI50 [10]: 1.47 µM | TGI [10]: 2.82 µM

COc1cc(C2C(C#N)=C(N)Oc3cc(O)ccc32)cc(OC)c1OC (centres undefined)
GI50 [1]: 0.317 µM | TGI [1]: 0.851 µM | GI50 [2]: 0.644 µM | TGI [2]: > 100 µM | GI50 [3]: 0.481 µM | TGI [3]: > 43.9 µM | GI50 [4]: 14.5 µM | TGI [4]: > 100 µM | GI50 [5]: 2.19 µM | TGI [5]: > 100 µM | GI50 [6]: 0.856 µM | TGI [6]: > 100 µM | GI50 [7]: 0.97 µM | TGI [7]: > 100 µM | GI50 [8]: 0.539 µM | TGI [8]: > 100 µM | GI50 [9]: 3.84 µM | TGI [9]: > 100 µM | GI50 [10]: 0.827 µM | TGI [10]: > 100 µM

CC[C@@]1(O)C(=O)OCc2c1cc1n(c2=O)Cc2c-1nc1ccccc1c2/C=N/OC(C)(C)C
GI50 [1]: 0.0804 µM | TGI [1]: 1.78 µM | GI50 [2]: 0.032 µM | TGI [2]: 1.58 µM | GI50 [3]: < 0.01 µM | TGI [3]: 1.34 µM | GI50 [4]: < 0.01 µM | TGI [4]: 2.8 µM | GI50 [5]: 0.0391 µM | TGI [5]: 5.26 µM | GI50 [6]: < 0.0118 µM | TGI [6]: > 42.1 µM | GI50 [7]: < 0.01 µM | TGI [7]: 0.149 µM | GI50 [8]: 0.082 µM | TGI [8]: 25.7 µM | GI50 [9]: < 0.01 µM | TGI [9]: 0.122 µM | GI50 [10]: < 0.01 µM | TGI [10]: 4.75 µM

COc1ccc(-c2nocc2-c2cc(OC)c(OC)c(OC)c2)cc1
GI50 [1]: 0.0364 µM | TGI [1]: 0.474 µM | GI50 [2]: 21.6 µM | TGI [2]: 60.7 µM | GI50 [3]: 0.142 µM | TGI [3]: > 82.8 µM | GI50 [4]: 0.683 µM | TGI [4]: > 85.9 µM | GI50 [5]: 0.346 µM | TGI [5]: > 100 µM | GI50 [6]: 0.228 µM | TGI [6]: > 100 µM | GI50 [7]: 0.236 µM | TGI [7]: > 100 µM | GI50 [8]: 0.0447 µM | TGI [8]: > 100 µM | GI50 [9]: 0.54 µM | TGI [9]: 29 µM | GI50 [10]: 0.942 µM | TGI [10]: > 96.2 µM

O=c1[nH]c(/C=C(\O)c2ccncc2)nc2ccccc12
TGI [1]: > 100 µM | TGI [2]: > 100 µM | TGI [3]: > 100 µM | TGI [4]: > 100 µM | TGI [5]: > 100 µM | TGI [6]: > 100 µM | TGI [7]: > 100 µM | TGI [8]: > 100 µM | TGI [9]: > 100 µM | TGI [10]: > 100 µM

COC(=O)C(Cc1nc2ccccc2[nH]c1=O)C(=O)C(=O)Nc1ccc(OC)cc1[N+](=O)[O-] (centres undefined)
TGI [1]: > 100 µM | TGI [2]: > 100 µM | TGI [3]: > 100 µM | TGI [4]: > 100 µM | TGI [5]: > 100 µM | TGI [6]: > 100 µM | TGI [7]: > 100 µM | TGI [8]: > 100 µM | TGI [9]: > 100 µM | TGI [10]: > 100 µM

CC(=O)Nc1sc2c(c1-c1nc3ccccc3s1)CNC2
GI50 [1]: 3.85 µM | TGI [1]: 24.4 µM | GI50 [2]: 2.21 µM | TGI [2]: 8.75 µM | GI50 [3]: 4.05 µM | TGI [3]: 39.2 µM | GI50 [4]: 2.94 µM | TGI [4]: 15 µM | GI50 [5]: 2.07 µM | TGI [5]: 11.9 µM | GI50 [6]: 2.45 µM | TGI [6]: > 50 µM | GI50 [7]: 2.05 µM | TGI [7]: > 50 µM | GI50 [8]: 1.56 µM | TGI [8]: 8.89 µM | GI50 [9]: 0.648 µM | TGI [9]: 11.4 µM | GI50 [10]: 2.5 µM | TGI [10]: 15.5 µM

CSc1nc2c(c(=O)[nH]1)C(c1ccc(Cl)cc1)C1=C(N2)/C(=C/c2ccc(Cl)cc2)CNC1 (centres undefined)
GI50 [1]: 2.23 µM | TGI [1]: 5.19 µM | GI50 [2]: 4.41 µM | TGI [2]: 19.2 µM | GI50 [3]: 2.66 µM | TGI [3]: 6.33 µM | GI50 [4]: 2.76 µM | GI50 [5]: 2.56 µM | TGI [5]: 7.04 µM | GI50 [6]: 2.7 µM | TGI [6]: 8.72 µM | GI50 [7]: 2.11 µM | TGI [7]: 5.09 µM | GI50 [8]: 2.04 µM | TGI [8]: 5.54 µM | GI50 [9]: 1.43 µM | TGI [9]: 2.91 µM | GI50 [10]: 2.06 µM | TGI [10]: 4.7 µM

Cc1cccc(C[C@H](NC(=O)Nc2ccc(Cl)cc2F)C(=O)N[C@@H]2C(=O)N3C[C@H](OC(=O)CCN(C)C)C[C@H]3C(=O)N3CCCC[C@H]3C(=O)N[C@@H](C)C(=O)N3C[C@H](C)C[C@H]3C(=O)O[C@H]2C)c1 ({NH(4-Cl-2-F-phenyl)-CO}-[Phe(3-Me)][aThr][Hyp](Propanoyl(3-NMe2))[Pip]A[Pro(4R-Me)]; ester 2-C)
GI50 [1]: 0.362 µM | TGI [1]: 1.47 µM | GI50 [2]: 0.567 µM | TGI [2]: 1.97 µM | GI50 [3]: 0.487 µM | TGI [3]: 5.74 µM | GI50 [4]: 0.466 µM | TGI [4]: 4.08 µM | GI50 [5]: 0.94 µM | TGI [5]: 2.46 µM | GI50 [6]: 0.431 µM | TGI [6]: 12.9 µM | GI50 [7]: 0.978 µM | TGI [7]: 3.59 µM | GI50 [8]: 1.98 µM | TGI [8]: 4.34 µM | GI50 [9]: 2.17 µM | TGI [9]: 7.13 µM | GI50 [10]: 0.371 µM | TGI [10]: 2.18 µM

CCCCCCCCCC(CCCC(O)CC(=O)O)OC1OC(COC2OC(C)C(O)C(O)C2O)C(O)C(O)C1OC1OC(CO)C(O)C(O)C1OC1OC(C)C(O)C(O)C1O (centres undefined)
GI50 [1]: > 40 µM | TGI [1]: > 40 µM | GI50 [2]: > 40 µM | TGI [2]: > 40 µM | GI50 [3]: > 40 µM | TGI [3]: > 40 µM | GI50 [4]: > 40 µM | TGI [4]: > 40 µM | GI50 [5]: > 40 µM | TGI [5]: > 40 µM | GI50 [6]: > 40 µM | TGI [6]: > 40 µM | GI50 [7]: > 40 µM | TGI [7]: > 40 µM | GI50 [8]: > 40 µM | TGI [8]: > 40 µM | GI50 [9]: > 40 µM | TGI [9]: > 40 µM | GI50 [10]: > 40 µM | TGI [10]: > 40 µM
